# Measured values from patent publication US20080051387A1, “TETRAHYDROPYRIDO[3,4-D]PYRIMIDINES AND RELATED ANALOGUES” (priority 2006, published 2008).
# Target: T1, chimeric human H3 receptor (Homo sapiens, UniProt Q9Y5N1)
# T1 construct: rat Galpha-i2 (Gnai2, rat); made in house; host or cells: Sf9 insect cells (baculovirus); P2 membranes
# Assay: Chimeric human H3 receptor screening GTP binding assay (inhibition of histamine-stimulated GTP-gamma35S binding, Example 8)
# Format: biochemical
# Settings: 1 h; assay of Example 8; symbol "!" in column headed Ki; read-out: percent inhibition of agonist-induced GTP-gammaS binding to H3
# Method in brief: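 Compound tested at 4 μM against 1 μM histamine stimulation; 125 pM GTP-gamma35S binding measured by filtration and scintillation after 60 min at room temperature. Membranes from Sf9 cells expressing chimeric human H3 plus G-protein subunits, in Tris pH 7.4/NaCl/MgCl2/GDP buffer; values are % inhibition after nonspecific subtraction.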
# T1 sequence (Q9Y5N1 with tags, fused parts or gaps): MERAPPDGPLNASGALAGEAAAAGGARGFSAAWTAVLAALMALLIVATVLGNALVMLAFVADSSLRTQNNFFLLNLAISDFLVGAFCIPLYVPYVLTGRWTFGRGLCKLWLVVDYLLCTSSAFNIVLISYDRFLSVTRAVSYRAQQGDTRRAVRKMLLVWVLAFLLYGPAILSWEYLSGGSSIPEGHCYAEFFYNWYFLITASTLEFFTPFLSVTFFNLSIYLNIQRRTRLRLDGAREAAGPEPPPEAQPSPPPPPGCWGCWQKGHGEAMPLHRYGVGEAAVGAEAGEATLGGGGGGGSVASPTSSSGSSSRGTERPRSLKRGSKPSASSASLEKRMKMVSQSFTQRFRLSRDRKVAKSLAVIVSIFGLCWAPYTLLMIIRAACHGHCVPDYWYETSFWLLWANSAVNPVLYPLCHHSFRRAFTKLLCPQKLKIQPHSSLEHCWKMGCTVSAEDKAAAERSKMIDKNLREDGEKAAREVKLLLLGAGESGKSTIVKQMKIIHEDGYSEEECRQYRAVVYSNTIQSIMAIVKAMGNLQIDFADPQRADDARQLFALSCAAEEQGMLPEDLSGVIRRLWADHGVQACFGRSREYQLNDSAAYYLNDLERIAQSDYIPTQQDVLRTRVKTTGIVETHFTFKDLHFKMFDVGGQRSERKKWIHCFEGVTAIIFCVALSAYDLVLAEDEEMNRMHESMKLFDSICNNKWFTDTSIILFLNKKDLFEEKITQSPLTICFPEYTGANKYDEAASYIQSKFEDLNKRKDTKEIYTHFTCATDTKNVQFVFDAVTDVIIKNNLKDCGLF
row,inhibition at 4 µM [%],Compound
1,≥ 90,"O=C(Cc1c(F)cccc1Cl)N1CCc2cnc(N3CCN(C4CCC4)CC3)nc2CC1 [Compound 298, 7-[(2-chloro-6-fluorophenyl)acetyl]-2-(4-cyclobutylpiperazin-1-yl)-6,7,8,9-tetrahydro-5H-pyrimido[4,5-d]azepine]"
2,≥ 90,"COc1cc(Br)c(CC(=O)N2CCc3cnc(N4CCN(C5CCC5)CC4)nc3CC2)cc1OC [Compound 299, 7-[(2-bromo-4,5-dimethoxyphenyl)acetyl]-2-(4-cyclobutylpiperazin-1-yl)-6,7,8,9-tetrahydro-5H-pyrimido[4,5-d]azepine]"
3,≥ 90,"O=C(Cc1c(Cl)ccc(Cl)c1Cl)N1CCc2cnc(N3CCN(C4CCC4)CC3)nc2CC1 [Compound 300, 2-(4-cyclobutylpiperazin-1-yl)-7-[(2,3,6-trichlorophenyl)acetyl]-6,7,8,9-tetrahydro-5H-pyrimido[4,5-d]azepine]"
4,≥ 90,"O=C(Cc1cc(Cl)ccc1Br)N1CCc2cnc(N3CCN(C4CCC4)CC3)nc2CC1 [Compound 301, 7-[(2-bromo-5-chlorophenyl)acetyl]-2-(4-cyclobutylpiperazin-1-yl)-6,7,8,9-tetrahydro-5H-pyrimido[4,5-d]azepine]"
5,≥ 90,"O=C(Cc1ccc(F)cc1Cl)N1CCc2cnc(N3CCN(C4CCC4)CC3)nc2CC1 [Compound 302, 7-[(2-chloro-4-fluorophenyl)acetyl]-2-(4-cyclobutylpiperazin-1-yl)-6,7,8,9-tetrahydro-5H-pyrimido[4,5-d]azepine]"
6,≥ 90,"O=C(Cc1c(Cl)cccc1Cl)N1CCc2cnc(N3CCN(C4CCC4)CC3)nc2CC1 [Compound 303, 2-(4-cyclobutylpiperazin-1-yl)-7-[(2,6-dichlorophenyl)acetyl]-6,7,8,9-tetrahydro-5H-pyrimido[4,5-d]azepine]"
7,≥ 90,"O=C(Cc1ccccc1Oc1ccccc1)N1CCc2cnc(N3CCN(C4CCC4)CC3)nc2CC1 [Compound 304, 2-(4-cyclobutylpiperazin-1-yl)-7-[(2-phenoxyphenyl)acetyl]-6,7,8,9-tetrahydro-5H-pyrimido[4,5-d]azepine]"
8,≥ 90,"Cc1ccccc1CC(=O)N1CCc2cnc(N3CCN(C4CCC4)CC3)nc2CC1 [Compound 305, 2-(4-cyclobutylpiperazin-1-yl)-7-[(2-methylphenyl)acetyl]-6,7,8,9-tetrahydro-5H-pyrimido[4,5-d]azepine]"
9,≥ 90,"COc1ccccc1CC(=O)N1CCc2cnc(N3CCN(C4CCC4)CC3)nc2CC1 [Compound 306, 2-(4-cyclobutylpiperazin-1-yl)-7-[(2-methoxyphenyl)acetyl]-6,7,8,9-tetrahydro-5H-pyrimido[4,5-d]azepine]"
10,≥ 90,"CCOc1ccccc1CC(=O)N1CCc2cnc(N3CCN(C4CCC4)CC3)nc2CC1 [Compound 307, 2-(4-cyclobutylpiperazin-1-yl)-7-[(2-ethoxyphenyl)acetyl]-6,7,8,9-tetrahydro-5H-pyrimido[4,5-d]azepine]"
11,≥ 90,"COc1ccc(OC)c(CC(=O)N2CCc3cnc(N4CCN(C5CCC5)CC4)nc3CC2)c1 [Compound 308, 2-(4-cyclobutylpiperazin-1-yl)-7-[(2,5-dimethoxyphenyl)acetyl]-6,7,8,9-tetrahydro-5H-pyrimido[4,5-d]azepine]"
12,≥ 90,"O=C(Cc1cccc2ccccc12)N1CCc2cnc(N3CCN(C4CCC4)CC3)nc2CC1 [Compound 309, 2-(4-cyclobutylpiperazin-1-yl)-7-(1-naphthylacetyl)-6,7,8,9-tetrahydro-5H-pyrimido[4,5-d]azepine]"
13,≥ 90,"COc1ccc(CC(=O)N2CCc3cnc(N4CCN(C5CCC5)CC4)nc3CC2)c(OC)c1 [Compound 310, 2-(4-cyclobutylpiperazin-1-yl)-7-[(2,4-dimethoxyphenyl)acetyl]-6,7,8,9-tetrahydro-5H-pyrimido[4,5-d]azepine]"
14,≥ 90,"COc1ccc(Br)cc1CC(=O)N1CCc2cnc(N3CCN(C4CCC4)CC3)nc2CC1 [Compound 311, 7-[(5-bromo-2-methoxyphenyl)acetyl]-2-(4-cyclobutylpiperazin-1-yl)-6,7,8,9-tetrahydro-5H-pyrimido[4,5-d]azepine]"
15,≥ 90,"COc1cccc(CC(=O)N2CCc3cnc(N4CCN(C5CCC5)CC4)nc3CC2)c1OC [Compound 312, 2-(4-cyclobutylpiperazin-1-yl)-7-[(2,3-dimethoxyphenyl)acetyl]-6,7,8,9-tetrahydro-5H-pyrimido[4,5-d]azepine]"
16,≥ 90,"O=C(Cc1ccccc1OC(F)(F)F)N1CCc2cnc(N3CCN(C4CCC4)CC3)nc2CC1 [Compound 313, 2-(4-cyclobutylpiperazin-1-yl)-7-{[2-(trifluoromethoxy)phenyl]acetyl}-6,7,8,9-tetrahydro-5H-pyrimido[4,5-d]azepine]"
17,≥ 90,"O=C(Cc1ccccc1OCc1ccccc1)N1CCc2cnc(N3CCN(C4CCC4)CC3)nc2CC1 [Compound 314, 7-{[2-(benzyloxy)phenyl]acetyl}-2-(4-cyclobutylpiperazin-1-yl)-6,7,8,9-tetrahydro-5H-pyrimido[4,5-d]azepine]"

row,inhibition at 4 µM [%],Compound
1,≥ 90,"O=C(COc1ccccc1)N1CCc2cnc(N3CCN(C4CCC4)CC3)nc2CC1 [Compound 315, 2-(4-cyclobutylpiperazin-1-yl)-7-(phenoxyacetyl)-6,7,8,9-tetrahydro-5H-pyrimido[4,5-d]azepine]"
2,≥ 90,"Cc1ccc(OCC(=O)N2CCc3cnc(N4CCN(C5CCC5)CC4)nc3CC2)cc1 [Compound 316, 2-(4-cyclobutylpiperazin-1-yl)-7-[(4-methylphenoxy)acetyl]-6,7,8,9-tetrahydro-5H-pyrimido[4,5-d]azepine]"
3,≥ 90,"O=C(COc1ccc(F)cc1)N1CCc2cnc(N3CCN(C4CCC4)CC3)nc2CC1 [Compound 317, 2-(4-cyclobutylpiperazin-1-yl)-7-[(4-fluorophenoxy)acetyl]-6,7,8,9-tetrahydro-5H-pyrimido[4,5-d]azepine]"
4,≥ 90,"COc1cc(Cl)ccc1OCC(=O)N1CCc2cnc(N3CCN(C4CCC4)CC3)nc2CC1 [Compound 318, 7-[(4-chloro-2-methoxyphenoxy)acetyl]-2-(4-cyclobutylpiperazin-1-yl)-6,7,8,9-tetrahydro-5H-pyrimido[4,5-d]azepine]"
5,≥ 90,"O=C(COc1ccc(OC(F)(F)F)cc1)N1CCc2cnc(N3CCN(C4CCC4)CC3)nc2CC1 [Compound 319, 2-(4-cyclobutylpiperazin-1-yl)-7-{[4-(trifluoromethoxy)phenoxy]acetyl}-6,7,8,9-tetrahydro-5H-pyrimido[4,5-d]azepine]"
6,≥ 90,"O=C(COc1ccccc1Cl)N1CCc2cnc(N3CCN(C4CCC4)CC3)nc2CC1 [Compound 320, 7-[(2-chlorophenoxy)acetyl]-2-(4-cyclobutylpiperazin-1-yl)-6,7,8,9-tetrahydro-5H-pyrimido[4,5-d]azepine]"
7,≥ 90,"Cc1ccccc1OCC(=O)N1CCc2cnc(N3CCN(C4CCC4)CC3)nc2CC1 [Compound 321, 2-(4-cyclobutylpiperazin-1-yl)-7-[(2-methylphenoxy)acetyl]-6,7,8,9-tetrahydro-5H-pyrimido[4,5-d]azepine]"
8,≥ 90,"Cc1cccc(OCC(=O)N2CCc3cnc(N4CCN(C5CCC5)CC4)nc3CC2)c1 [Compound 322, 2-(4-cyclobutylpiperazin-1-yl)-7-[(3-methylphenoxy)acetyl]-6,7,8,9-tetrahydro-5H-pyrimido[4,5-d]azepine]"
9,≥ 90,"COc1ccccc1OCC(=O)N1CCc2cnc(N3CCN(C4CCC4)CC3)nc2CC1 [Compound 323, 2-(4-cyclobutylpiperazin-1-yl)-7-[(2-methoxyphenoxy)acetyl]-6,7,8,9-tetrahydro-5H-pyrimido[4,5-d]azepine]"
10,≥ 90,"COc1cccc(OCC(=O)N2CCc3cnc(N4CCN(C5CCC5)CC4)nc3CC2)c1 [Compound 324, 2-(4-cyclobutylpiperazin-1-yl)-7-[(3-methoxyphenoxy)acetyl]-6,7,8,9-tetrahydro-5H-pyrimido[4,5-d]azepine]"
11,≥ 90,"COc1ccc(OCC(=O)N2CCc3cnc(N4CCN(C5CCC5)CC4)nc3CC2)cc1 [Compound 325, 2-(4-cyclobutylpiperazin-1-yl)-7-[(4-methoxyphenoxy)acetyl]-6,7,8,9-tetrahydro-5H-pyrimido[4,5-d]azepine]"
12,≥ 90,"O=C(COc1ccc(Cl)cc1)N1CCc2cnc(N3CCN(C4CCC4)CC3)nc2CC1 [Compound 326, 7-[(4-chlorophenoxy)acetyl]-2-(4-cyclobutylpiperazin-1-yl)-6,7,8,9-tetrahydro-5H-pyrimido[4,5-d]azepine]"
13,≥ 90,"Cc1cccc(OCC(=O)N2CCc3cnc(N4CCN(C5CCC5)CC4)nc3CC2)c1C [Compound 327, 2-(4-cyclobutylpiperazin-1-yl)-7-[(2,3-dimethylphenoxy)acetyl]-6,7,8,9-tetrahydro-5H-pyrimido[4,5-d]azepine]"
14,≥ 90,"Cc1cc(Cl)ccc1OCC(=O)N1CCc2cnc(N3CCN(C4CCC4)CC3)nc2CC1 [Compound 328, 7-[(4-chloro-2-methylphenoxy)acetyl]-2-(4-cyclobutylpiperazin-1-yl)-6,7,8,9-tetrahydro-5H-pyrimido[4,5-d]azepine]"
15,≥ 90,"CC(C)(C)c1ccc(OCC(=O)N2CCc3cnc(N4CCN(C5CCC5)CC4)nc3CC2)cc1 [Compound 329, 7-[(4-tert-butylphenoxy)acetyl]-2-(4-cyclobutylpiperazin-1-yl)-6,7,8,9-tetrahydro-5H-pyrimido[4,5-d]azepine]"
16,≥ 90,"O=C(COc1cccc(Cl)c1)N1CCc2cnc(N3CCN(C4CCC4)CC3)nc2CC1 [Compound 330, 7-[(3-chlorophenoxy)acetyl]-2-(4-cyclobutylpiperazin-1-yl)-6,7,8,9-tetrahydro-5H-pyrimido[4,5-d]azepine]"
